{
  "source": "paper PMC11480361",
  "about": "“Design of a Cereblon construct for crystallographic and biophysical studies of protein degraders” (Nature Communications, 2024)",
  "key": {"[1]": {"tested_on": "T1, CRBN^ΔN:DDB1^ΔBPB and BRD4^BD2", "T1 construct": "a construct lacking the unstructured N-terminal region of CRBN (CRBN^ΔN:DDB1); Human Brd4^BD2 (residues 333–460, UniProt ID: O60885); His6 (N); purchased Selvita", "assay": "TR-FRET ternary complex formation with BRD4^BD2", "type": "binding, human", "settings": "for TR-FRET signal: CRBNΔN-DDB1ΔBPB, source data Fig. 3h, replicates", "protocol": "(§1) The mixture was incubated in the dark with gentle rocking for 1 hour before readout using a PHERAstar microplate reader (BMG Labtech) with Pherastar software (version 5.70 R5). All incubations were conducted at 20 °C. Data were fitted by non-linear regression (curve fit) using Prism software (GraphPad version 10). Experiments were conducted in triplicate and were the average of three repeats."}, "[2]": {"tested_on": "T2, CRBN^TBD and BRD4^BD2", "T2 construct": "Human Brd4^BD2 (residues 333–460, UniProt ID: O60885); GST (cleaved yes); His6; His6 (N); made in house; host or cells: E. coli BL21(DE3)", "assay": "TR-FRET ternary complex formation with BRD4^BD2", "type": "binding, human", "settings": "for TR-FRET signal: CRBNTBD, source data Fig. 3h, replicates", "protocol": "as §1"}, "[3]": {"biological_target": "T3, CRBN^midi (Homo sapiens, UniProt Q96SW2, C287N/C343E/C78I/DEL188-248/G302D/I92V/INS187GSG/K116N/L342R/L423I/Q134E/R283W/T359I/V293S)", "T3 construct": "amino acids 41-187 followed by a Gly-Ser-Gly linker and amino acids 249-426; His6 (N, cleaved yes); made in house; host or cells: E. coli BL21(DE3)", "T3 sequence (Q96SW2 with tags, fused parts or gaps with the stated changes limits assumed)": "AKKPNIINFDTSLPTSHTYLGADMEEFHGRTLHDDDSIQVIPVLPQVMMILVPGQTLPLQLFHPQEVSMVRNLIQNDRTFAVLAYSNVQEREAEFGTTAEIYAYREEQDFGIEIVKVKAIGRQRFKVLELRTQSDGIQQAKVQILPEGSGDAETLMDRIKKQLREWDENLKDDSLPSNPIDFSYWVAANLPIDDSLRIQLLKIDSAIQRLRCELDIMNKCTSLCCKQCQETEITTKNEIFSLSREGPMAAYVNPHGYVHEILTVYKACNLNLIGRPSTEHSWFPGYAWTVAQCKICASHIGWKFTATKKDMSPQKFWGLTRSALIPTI", "assay": "SPR, CRBN^midi on chip, binary", "type": "binding", "protocol": "All SPR measurements were carried out on a Biacore^TM 8 K (Cytiva, Biacore Insight Control Software version 5.0.18.22405). CRBN^midi was immobilized via a His6 tag on a NiHC 1500 M chip (XanTec) at 25 °C. The chip surface was prepared for ligand (CRBN^midi) capture as per manufacturer’s instructions, flowing 350 mM EDTA, followed by buffer, then loaded using 5 mM NiCl2 followed by buffer. For binary measurements CRBN^midi was diluted to 350 nM and flowed at 10 µL/min. for 420 s to capture a final bound response of 240 RUs. For […] measurements, 10 nM of CRBN^midi was flowed at 10 µl/min. for 420 s to capture a final bound response of approximately 10,000 RUs. The buffer for immobilization and all kinetic measurements was 50 mM Tris pH 8.0, 150 mM NaCl, 0.25 mM TCEP, 0.005% (v/v) Tween-20 and 2% (v/v) DMSO.\n(§2) For ternary experiments the analyte was supplemented with 50 µM BRD4^BD2. Each concentration point was flowed independently at 50 µL/min. with an association time of 150 s followed by 500 s dissociation. All measurements were carried out at 20 °C.\n(§3) Data was analyzed using Biacore^TM Insight Evaluation Software (version 4.0.8.20368). Raw sensograms were solvent corrected, followed by reference and blank subtraction. […] Alpha, a parameter indicative of cooperativity, was calculated by dividing binary KD by ternary KD."}, "[4]": {"biological_target": "T4, CRBN^midi and BRD4^BD2 (Homo sapiens, UniProt O60885+Q96SW2, C287N/C343E/C78I/DEL188-248/G302D/I92V/INS187GSG/K116N/L342R/L423I/Q134E/R283W/T359I/V293S)", "T4 construct": "amino acids 41-187 followed by a Gly-Ser-Gly linker and amino acids 249-426; Human Brd4^BD2 (residues 333–460, UniProt ID: O60885); His6 (N); made in house; host or cells: E. coli BL21(DE3)", "T4 sequence (Q96SW2 with tags, fused parts or gaps with the stated changes limits assumed, other chains not shown)": "as the sequence (Q96SW2 with tags, fused parts or gaps with the stated changes limits assumed) above", "assay": "SPR, CRBN^midi on chip, ternary (analyte with 50 µM BRD4^BD2)", "type": "binding", "protocol": "All SPR measurements were carried out on a Biacore^TM 8 K (Cytiva, Biacore Insight Control Software version 5.0.18.22405). […] The buffer for immobilization and all kinetic measurements was 50 mM Tris pH 8.0, 150 mM NaCl, 0.25 mM TCEP, 0.005% (v/v) Tween-20 and 2% (v/v) DMSO.\nas §2, §3"}, "[5]": {"biological_target": "T4, CRBN^midi and BRD4^BD2", "assay": "TR-FRET ternary complex formation with BRD4^BD2", "type": "binding", "settings": "for TR-FRET signal: CRBNmidi, source data Fig. 3h, replicates", "protocol": "as §1"}, "[6]": {"settings": "CRBN^midi immobilization level 9581"}, "[7]": {"settings": "CRBN^midi immobilization level 240"}},
  "note": "Where “and” joins values, the source holds several entries; their conditions need not be identical. Identical values can stand only once.",
  "data": [
    {"compound": "Cc1nnc2n1-c1ccc(-c3cnn(CCCCCCCN4CCC(c5cccc6c5CN(C5CCC(=O)NC5=O)C6=O)CC4)c3)cc1C(c1ccc(Cl)cc1)=NC21CC1", "note": "(centres unmarked) [CFT-1297]", "values": [
      {"measurement": "maximal concentration of bell-shaped TR-FRET profile", "setting": "[1]; CRBN^ΔN:DDB1^ΔBPB, BRD4^BD2", "result": 17, "unit": "nM"},
      {"measurement": "TR-FRET signal", "setting": "[1]; CFT-1297 6.3657e-10 M", "result": "5 and -3 and 2 and 6 and 3 and 13 and 20"},
      {"measurement": "TR-FRET signal", "setting": "[1]; CFT-1297 2.01156e-9 M", "result": "73 and 94 and 64 and 70 and 78 and 68 and 83 and 85 and 77"},
      {"measurement": "TR-FRET signal", "setting": "[1]; CFT-1297 6.35653e-9 M", "result": "339 and 359 and 325 and 342 and 338 and 345 and 352 and 373 and 376"},
      {"measurement": "TR-FRET signal", "setting": "[1]; CFT-1297 2.00866e-8 M", "result": "756 and 794 and 735 and 761 and 799 and 801 and 763 and 726 and 762"},
      {"measurement": "TR-FRET signal", "setting": "[1]; CFT-1297 6.34738e-8 M", "result": "382 (2×) and 392 and 395 and 387 and 370 and 383 and 372 and 363"},
      {"measurement": "TR-FRET signal", "setting": "[1]; CFT-1297 2.00577e-7 M", "result": "131 and 143 and 127 and 140 and 124 and 132 and 129 and 147 and 119"},
      {"measurement": "TR-FRET signal", "setting": "[1]; CFT-1297 6.33824e-7 M", "result": "50 and 51 and 69 and 66 and 56 and 71 and 52 and 54 and 38"},
      {"measurement": "TR-FRET signal", "setting": "[1]; CFT-1297 2.00288e-6 M", "result": "14 and 4 and 16 and 27 and 34 and 33 and -10 and -1 and -13"},
      {"measurement": "TR-FRET signal", "setting": "[1]; CFT-1297 6.32911e-6 M", "result": "11 and 4 and 8 and 21 and 25 and 18 and 13 and 9 and 23"},
      {"measurement": "TR-FRET signal", "setting": "[2]; CFT-1297 6.3657e-10 M", "result": "-100 and -96 and -91 and -28 and -32 and -31 and -4 and -7 and 0"},
      {"measurement": "TR-FRET signal", "setting": "[2]; CFT-1297 2.01156e-9 M", "result": "20 and 18 and 19 and 27 (2×) and 31 and 16 and 0 and 9"},
      {"measurement": "TR-FRET signal", "setting": "[2]; CFT-1297 6.35653e-9 M", "result": "17 and 14 and 10 and 42 and 47 and 37 and 20 and 23 and 11"},
      {"measurement": "TR-FRET signal", "setting": "[2]; CFT-1297 2.00866e-8 M", "result": "45 and 44 and 40 and 53 and 52 (2×) and 41 and 50"},
      {"measurement": "TR-FRET signal", "setting": "[2]; CFT-1297 6.34738e-8 M", "result": "117 and 115 and 122 and 101 and 103 and 107 and 98 and 97 and 102"},
      {"measurement": "TR-FRET signal", "setting": "[2]; CFT-1297 2.00577e-7 M", "result": "132 and 129 and 128 and 106 and 105 and 108 and 111 and 110"},
      {"measurement": "TR-FRET signal", "setting": "[2]; CFT-1297 6.33824e-7 M", "result": "109 and 104 and 106 and 98 and 78 and 100"},
      {"measurement": "TR-FRET signal", "setting": "[2]; CFT-1297 2.00288e-6 M", "result": "112 and 117 and 108 and 92 and 89 and 102 and 91 and 95 and 90"},
      {"measurement": "TR-FRET signal", "setting": "[2]; CFT-1297 6.32911e-6 M", "result": "131 (2×) and 129 and 112 and 107 and 117 and 110 and 105"},
      {"measurement": "ternary complex formation by TR-FRET", "setting": "[2]; CRBN^TBD, BRD4^BD2", "result": "no significant ternary complex formation was detected"},
      {"measurement": "Experimental Rmax / Theoretical Rmax", "setting": "[3]", "result": 93, "unit": "%"},
      {"measurement": "Kd", "setting": "[3]", "result": 2100, "unit": "nM"},
      {"measurement": "Experimental Rmax", "setting": "[3]; [6]", "result": 196},
      {"measurement": "Theoretical Rmax", "setting": "[3]; [6]", "result": 211},
      {"measurement": "Experimental Rmax / Theoretical Rmax", "setting": "[4]", "result": 55, "unit": "%"},
      {"measurement": "cooperativity α (binary KD / ternary KD)", "setting": "[4]", "result": 3},
      {"measurement": "Experimental Rmax", "setting": "[4]; [7]", "result": 56},
      {"measurement": "Theoretical Rmax", "setting": "[4]; [7]", "result": 101},
      {"measurement": "maximal concentration of bell-shaped TR-FRET profile", "setting": "[5]; CRBN^midi, BRD4^BD2", "result": 21, "unit": "nM"},
      {"measurement": "TR-FRET signal", "setting": "[5]; CFT-1297 6.3657e-10 M", "result": "120 and 116 and 105 and 148 and 130 and 152 and 174 and 158 and 167"},
      {"measurement": "TR-FRET signal", "setting": "[5]; CFT-1297 2.01156e-9 M", "result": "347 and 363 (2×) and 394 and 412 and 387 and 420 (2×) and 430"},
      {"measurement": "TR-FRET signal", "setting": "[5]; CFT-1297 6.35653e-9 M", "result": "931 and 924 and 913 and 954 and 948 and 945 and 981 and 982 and 990"},
      {"measurement": "TR-FRET signal", "setting": "[5]; CFT-1297 2.00866e-8 M", "result": "1502 and 1521 and 1538 and 1551 and 1571 and 1561 and 1573 and 1559 and 1582"},
      {"measurement": "TR-FRET signal", "setting": "[5]; CFT-1297 6.34738e-8 M", "result": "850 and 872 and 886 and 873 and 864 and 854 and 799 and 811 and 813"},
      {"measurement": "TR-FRET signal", "setting": "[5]; CFT-1297 2.00577e-7 M", "result": "376 and 352 and 403 and 396 and 394 (2×) and 313 and 326 and 341"},
      {"measurement": "TR-FRET signal", "setting": "[5]; CFT-1297 6.33824e-7 M", "result": "185 and 204 and 173 and 213 and 220 and 205 and 126 and 137 and 130"},
      {"measurement": "TR-FRET signal", "setting": "[5]; CFT-1297 2.00288e-6 M", "result": "130 and 122 and 145 and 152 and 153 and 147 and 79 and 88 and 84"},
      {"measurement": "TR-FRET signal", "setting": "[5]; CFT-1297 6.32911e-6 M", "result": "113 and 129 and 102 and 140 and 135 and 145 and 75 and 68 and 78"}
    ]}
  ]
}
